Where two headings read alike, the source gives them in different places.
How the values were obtained:
[1] = In vitro cytotoxicity of L929 cells (AlamarBlue); format: cell-based, mice; conditions: mouse, four days
Method: For this bioassay, 4000 mammalian cells in 200 µL of RPMI-1640 medium (pH 7.2–7.4) (Gibco BRL) plus 10% fetal bovine serum and 2 mM glutamine were added to each well of a 96-well microtiter plate, which was incubated for three days at 37 °C. […] After this period, 20 µL of AlamarBlue^TM was added to each well, and the plate was incubated for another 4–6 h. Then, the absorbance was measured at 570 nm. Controls with cells not treated and treated with benznidazole were performed in parallel, and triplicates were performed on the same plate. The results are expressed as the percent difference in the reduction between treated (CT) and untreated cells (UT) using the following equation:(1) 117.216Abs570 TC−80.586(Abs600 TC)/117.216Abs570 UT−80.586(Abs600 UT) × 100

[2] = system: T. cruzi (Tulahuen strain); assay: In vitro anti-T. cruzi evaluation in an intracellular model (trypomastigote and amastigote forms, L929 host cells, β-galactosidase readout); format: cell-based, Trypanosoma cruzi; conditions: for IC50: Tulahuen strain, intracellular trypomastigote and amastigote forms in L929 fibroblasts, 96 h, read-out: IC50 T. cruzi; for SI: selectivity index, L929 cells vs T. cruzi
Method: Derivatives 5–10 were evaluated in vitro against T. cruzi in an intracellular model on the trypomastigote and amastigote forms of the parasite of the Tulahuen strain [20]. This model is interesting because it mimics the life cycle of the parasite, as both clinically relevant forms are present in the environment. The mammalian host cells used were fibroblasts from L929 mice.
This assay was performed as previously described by Buckner et al. (1996) using T. cruzi (Tulahuen strain), which expresses the β-galactosidase gene of Escherichia coli. Infectious trypomastigote forms were obtained by culturing fibroblast monolayers of L929 mice in RPMI-1640 medium (pH 7.2–7.4) without phenol red (Gibco BRL), containing 10% fetal bovine serum and 2 mM glutamine. For the bioassay, 4000 L929 cells in 80 µL of supplemented medium were added to each well of a 96-well microtiter plate. After overnight incubation, 40,000 trypomastigotes in 20 µL were added to the cells and incubated for 2 h. […] The medium was then replaced with compound solutions at 1.0 µg/mL in fresh medium (200 µL), and the plate was incubated for 96 h at 37 °C. After this period, 50 µL of chlorophenol D-galactopyranoside red (500 µM) in 0.5% Nonidet P40 was added to each well, and the plate was incubated for 18 h at 37 °C. After this, the absorbance was measured at 570 nm. Controls with uninfected cells and infected cells treated with benznidazole were performed in parallel. The results are expressed as the percentage of T. cruzi growth inhibition in cells tested with compost compared to infected and untreated cells. The tests were performed in triplicate.

[3] = system: T. cruzi nitroreductase enzyme (TcNTR); assay: Kinetic assay with Trypanosoma cruzi nitroreductase enzyme (NADH oxidation); format: biochemical; conditions: for Kobs Deriv./Kobs BZN 50 µM: 50 µM derivative
Method: To determine a potential mechanism of action, nitroazole derivatives 5, 6, 8 and 9 were evaluated as substrates of the T. cruzi nitroreductase enzyme (TcNTR) and compared to BZN, the reference prodrug (Table 2). The enzymatic activity was measured by monitoring the oxidation of NADH, the first substrate of the enzyme, via spectrophotometric assays. […] At a concentration of 25 µM, derivatives 5 and 8 were metabolized at rates 2.3 and 2.6 times higher than that of BZN, respectively. At 50 µM, the compounds presented metabolism rates 1.6 and 3.0 times higher than that of BZN, respectively.
The protocols for expressing, purifying and conducting kinetic analysis with the recombinant TcNTR enzyme were adapted from the methods originally developed by Shane Wilkinson, with certain modifications.
For the kinetics assays, it was prepared a 200 μL solution which included 50 mM Tris-Base at pH 7.5, with a constant concentration of both NADH (50 μM) and the substances 5, 6, 8, 9 or BZN. Specifically, two distinct fixed concentrations (25 and 50 μM) of the substances 5, 6, 8, 9 or BZN were tested. These prepared mixtures were then incubated for 5 min at room temperature. Subsequently, the reaction was initiated by adding NTR to achieve a final concentration of 10 μg/mL. The reaction rates were monitored using a Hitachi U-2900 spectrophotometer, measuring the consumption of the primary substrate, NADH (λ = 340 nm; ε = 6.220 M^−1 cm^−1), over a 2-min interval. The resulting data curves were analyzed through linear regression using OriginPro 2016 software. To evaluate the reaction rate (Kobs) obtained from the 25 and 50 μM concentrations of each substrate, comparisons were made with the reference values for BZN. Measurement errors were calculated using the formula: Error = Z × σ/√n, where ‘Z’ denotes the critical value, ‘σ’ represents the standard deviation and ‘n’ is the number of test measurements, which were performed at least in triplicate.

T. cruzi = system: T. cruzi; parameters: method as in PMID 10602737; conditions: in vitro; read-out: IC50 against T. cruzi; cited from earlier work
[4] = Trypanosoma cruzi, TULAHUEN, L929, 96 h

SMILES: O=C(Cn1cnc([N+](=O)[O-])n1)c1ccc(F)cc1F [Compound 5, 1-(2,4-Difluorophenyl)-2-(3-nitro-1H-1,2,4-triazol-1-yl)ethanone]
- CC50 at 4 days [1]: 1.2 ± 1e-05 mM
- melting point: 117 to 119 °C
- IC50 [2, 4]: 1.8 ± 0.07 µM
- times more potent against T. cruzi than 6 ([2]; ratio of IC50 T. cruzi to 2-nitroimidazole ketone 6): approximately 50
- SI [2]: 667
- Kobs Deriv./Kobs BZN 25 µM ([3]; 25 µM derivative, ratio of mean Kobs to BZN): 2.3
- consumption rate by TcNTR, times higher than that of 6 ([3]; 50 µM): 6.6
- Kobs Deriv./Kobs BZN 50 µM ([3]; ratio of mean Kobs to BZN): 1.6

SMILES: O=C(Cn1ccnc1[N+](=O)[O-])c1ccc(F)cc1F [Compound 6, 1-(2,4-Difluorophenyl)-2-(2-nitro-1H-imidazol-1-yl)ethanone]
- CC50 at 4 days [1]: 0.629 ± 0.061 mM
- melting point: 128 to 130 °C
- IC50 [2, 4]: 90.9 µM
- IC50 [2]: 91 ± 4 µM
- SI [2]: 7
- Kobs Deriv./Kobs BZN 50 µM ([3]; ratio of mean Kobs to BZN): 0.3

SMILES: O=C(Cn1cncn1)c1ccc(F)cc1F [Compound 7, 1-(2,4-Difluorophenyl)-2-(1H-1,2,4-triazol-1-yl)ethanone]
- IC50 [2, 4]: > 200 µM

SMILES: OC(Cn1cncn1)c1ccc(F)cc1F (centres unmarked) [Compound 10, 1-(2,4-Difluorophenyl)-2-(1H-1,2,4-triazol-1-yl)ethanol]
- CC50 at 4 days [1]: > 3.2 mM
- melting point: 119 to 121 °C
- IC50 [2, 4]: 120 ± 90 µM
- SI [2]: >27

SMILES: CC[C@@H]([C@H](C)O)n1ncn(-c2ccc(N3CCN(c4ccc(OC[C@@H]5CO[C@@](Cn6cncn6)(c6ccc(F)cc6F)C5)cc4)CC3)cc2)c1=O [posaconazole]
- IC50 (T. cruzi): < 1 nM
